Literature values in patent publication US20160228385A1, “PURIFIED CBD AND CBDA, AND METHODS, COMPOSITIONS AND PRODUCTS EMPLOYING CBD OR CBDA” (COLORADO CAN LLC, priority 2015, published 2016).

Tested on: human subjects seeking to quit smoking
Conditions: CBD administered via an inhaler, compared to no reduction with placebo inhaler

In the case of `C=C(C)[C@@H]1CCC(C)=C[C@H]1c1c(O)cc(CCCCC)cc1O` [CBD, Cannabidiol], the “reduction of cigarette use” value is given as 40%.
